In patent US6630123B1, “Method to enhance tissue accumulation of radiolabeled compounds” (Board of Supervisors of Louisiana State University and …, priority 1997, dated 2003):
Each block holds one compound with its values, some of them ahead of it. Where no end group is shown, it is not given here.

Tests used:
[1] = system: neuroendocrine cancers expressing the somatostatin receptor; assay: Pilot clinical trial of monthly 180 mCi doses; type: in vivo, human; settings: ten patients
Experimental: For six months, pilot clinical trials were conducted in ten human patients with progressive metastatic indolent and symptomatic neuroendocrine cancers expressing the somatostatin receptor. […] The first monthly dose was a bolus injection of 180 mCi. The second monthly dose was infusion of 180 mCi over 72 hr. The third monthly dose was infusion of 180 mCi over 24 hr. Thereafter, all monthly doses were infusion of 180 mCi over 24 hr. Clinical benefits (as evidenced by reduced pain, weight gain, reduced malaise, etc.) occurred in 6 of the 10 neuroendocrine (carcinoid/islet cell) patients. Partial radiographic responses (greater than 50% reduction in the product of perpendicular tumor diameters) occurred in 2 patients, and significant tumor necrosis developed in 7 of the 10 neuroendocrine patients. Treatment-related toxicity included 2 Grade III platelet, 1 Grade II WBC, 1 Grade I WBC and 2 Grade I Hb on the NCI (National Cancer Institute) grading scale.

[2] = system: tumor in the left side of the neck (metastatic small cell carcinoma); settings: in vivo
Experimental: During and after each administration of the last eight doses, a tumor in the left side of the neck was monitored for radioligand uptake with an ion chamber survey meter, a Victoreen 450P ion chamber, which measures external gamma dose rates. Administration of the initial seven doses were by bolus inject ion. The last three doses were delivered by infusion with various activities of radioligand.
The external gamma dose rates from radioligand accumulation in the neck tumor area were measured immediately and 24 hr after injection. After the treatment of the fifth month, the patient was monitored for radioligand uptake for an extended period—at 2, 4, and 8 days after the injection.
Four months after the final bolus dose, the first dose by infusion (“Infusion 1”) was administered. A dose equivalent to the previous bolus dose (175.9 mCi) was given, but the radioligand was administered by infusion over 72 hr at a constant rate of 2.5 mCi/hr.
One month later, in “Infusion 2,” the total dose was increased to 389.2 mCi. By infusion, 189.8 mCi of the radioligand was given over the first 24 hr, 108.6 mCi over the second 24 hr, and 90.8 mCi over the third 24 hr. For each 24 hr period, the infusion rate was kept constant.
One month later, a third dose was administered by infusion (“Infusion 3”). A dose of 301 mCi was infused the first 24 hr period. […]

[3] = system: IMR-32 cells; assay: Nuclear translocation, Percoll density gradient fractionation; type: cell-based, human
Experimental: The cells were washed twice in media at 4° C. and resuspended in cold isotonic sucrose. The labeled cells were passed through a ballbearing homogenizer three times to disrupt cell membranes while leaving approximately 95% of the cell nuclei intact, according to the method of Balch et al., Arch. Biochem. Biophys., vol. 240, p. […] The cell homogenate was mixed with Percoll to give a final concentration of 0.292% Percoll and spun at 20,400 rpm in a Beckman 40.2 rotor for 45 min to generate a density gradient. Density marker beads (Pharmacia) were used to indicate density levels in the tube. The contents of the tube were fractionated in an ISCO Density Gradient Fractionator. The resulting tubes were assayed for content of radiolabeled somatostatin or analogs, DNA to indicate nuclei, protein, the plasma membrane marker 5′-nucleotidase, and the lysosome marker N-acetylglucosaminidase. The usual assumption was made that the radioactivity measured in fractions rich in a certain cell component was in fact associated with that component; e.g., the radioactivity measured in a fraction rich in plasma membrane was due to association of the radiolabeled compound with the plasma membrane.

[4] = system: MCF-7 breast cancer cell line; assay: Specific binding of radiolabeled estradiol with time, MCF-7; type: cell-based, human
Experimental: (§1) To follow the time of uptake of a steroid hormone, three cell lines were incubated with a radiolabeled estrogen using procedures similar to those of Example 2. Three breast cancer cell lines were used; MCF-7 (ATCC No. HTB-22), T47D (ATCC No. HTB-133), and ZR-75-1 (ATCC No. CRL-1500). The estrogen used was 17-β-estradiol, the major secreted estrogen in humans. The radiolabeled compound was ^125I-17-β-estradiol, which was either purchased from New England Nuclear or synthesized by the following procedure: A 10 ml Sephadex G-10 column was equilibrated for 1 hr with 0.1 M PBS. A solution was prepared of 12.5 μg estradiol conjugate (BL-43), 25 μl methanol, 50 μl 0.05 M phosphate buffer pH 7.5, 3 mCi Na^125I, and 25 μl of a mixture of 10 mg chloramine-T and 10 ml 0.05 M phosphate buffer. After mixing for 40 sec, 25 μl of sodium metabisulfite 20 mg/10 ml 0.05 M Phosphate buffer was added and mixed an additional 40 sec. The mixture was then added to the Sephadex column and eluted first with 0.1 M PBS. Finally, the radiolabeled estradiol was eluted with 0.1 M PBS and 1,4 Dioxane (70:30).
(§2) The standard binding procedure described in Example 2 was used except that radiolabeled estradiol was used as the ligand with 1000× excess non-radioactive estradiol as the competitor. Unlike peptides that initially must bind on the plasma membrane, steroids bind only to intracellular receptors. Thus no radioactivity on the membrane should be found.

[5] = system: T47D breast cancer cell line; assay: Specific binding of radiolabeled estradiol with time, T47D; type: cell-based, human; settings: T-47D
Experimental: as §1, §2

[6] = system: ZR-75-1 breast cancer cell line; assay: Specific binding of radiolabeled estradiol with time, ZR-75-1; type: cell-based, human
Experimental: as §1, §2

[7] = cited from earlier work
[8] = system: human placental-derived vascular endothelial cells; assay: Binding and internalization in angiogenic vascular endothelial cells; type: cell-based; settings: 500,000 cells, 500,000 cpm, acid wash, FIG. 17
Description: Human placental-derived vascular endothelial cells were used to assay for cell binding of the somatostatin analog, ^125I-JIC-2D. The radioligand, a somatostatin analog, ^125I-JIC-2D, was made by solid phase peptide synthesis as described in U.S. Pat. No. 5,597,894. This peptide has an amino acid sequence of the following: D-Lys-D-Tyr-D-Lys-D-Tyr-D-Lys-C[Cys-Phe-D-Trp-Lys-Thr-Cys]-Thr-NH2. The cells were obtained by growing discs of human placental veins in fibrinclots for 14 days. […] These discs and their angiogenic sprouts are harvested mechanically and dissociated by vortexing. The vein discs are then discarded and the endothelial cells pooled. Cells were harvested, counted with a hemocytometer, and resuspended in binding buffer (Minimum Essential Medium (MEM), 10 mM Hepes, 0.01% BSA). A standard assay used 500,000 cells in 1 ml of binding buffer. […] At the termination of the experiment, the incubation medium was removed, the cells were rinsed twice with Hanks balanced salt solution (HBSS), and the radioactivity in the cells determined using a gamma counter. This level of radioactivity represents total binding, which includes both membrane-bound and internalized fractions. Specific binding was determined by calculating the difference in the levels of measured radioactivity without the unlabeled competitor minus the radioactivity with the unlabeled competitor. […]

[9] = system: human placental vein discs (angiogenic vascular tissue); assay: Human Placental Vein Angiogenesis Model; type: cell-based; settings: 50 μCi/mL (or equivalent amounts)
Description: Watson et al., “Up-Regulation of Somatostatin Receptor Subtype 2. (SST-2) mRNA Occurs During the Transformation of Human Endothelium to the Angiogenic Phenotype,” Paper Presented at the 12th International Symposium on Regulatory Peptides, Copenhagen, Denmark, September 1996; J. C. Watson et al., “SST-2 Gene Expression Appears During Human Angiogenesis,” Regulatory Peptides, vol. 64, p. 206 (Abstract) (1996); and J. C. Watson et al., “Breast Cancer Increases Initiation of Angiogenesis Without Accelerating Neovessel Growth Rate,” Surgery, vol. 122, pp. 508-14 (1997). Human placental veins were cut into discs of 2 mm diameter and were incorporated into a 0.3% fibrinogen gel. This gel was then overlaid with tissue culture media containing 10-20% fetal calf serum (FCS). Under normal conditions, endothelial cords will begin to sprout from the transected cut edge of the vein discs within six days.
These vein discs were placed into wells of three separate culture plates. One culture plate, the control sample, was allowed to grow without treatment. […] The discs were then incubated for fourteen days. After 14 days the culture plates were examined for the number of wells in which angiogenic growth was initiated. […] The molar concentration of the radiolabeled somatostatin analog added to the culture plates was in the femtomolar range (10^−15). This concentration is 1000× or more below the concentration of unlabeled somatostatin analog that is known to inhibit angiogenesis; a concentration of 10^−5 M to 10^−8 M. Thus any effect was due to the radiolabel and not just the presence of the somatostatin analog. […] Only the radiolabel connected to the somatostatin analog would be incorporated into the DNA. Thus the greater decrease is due to this incorporation and the Auger emission on DNA.
Using a digital image analyzer, the mean area of the sprouting tissue surrounding the discs was measured.
To measure the growth rate of angiogenic vascular tissue, every two days during the 14-day incubation period, the length of sprouts were measured. […]

half-life of exponential decay of tumor radioactivity (approached physical half-life of the radioligand) ([2]; female, human): ~67.3 h
Compound: C[C@@H](O)[C@@H]1NC(=O)[C@H](CCCCN)NC(=O)[C@@H](Cc2c[nH]c3ccccc23)NC(=O)[C@H](Cc2ccccc2)NC(=O)[C@@H](NC(=O)[C@@H](Cc2ccccc2)NC(=O)CN2CCN3CCN(CC(=O)O)CC(=O)[O][111In]([O]C(=O)C3)[O]C(=O)C2)CSSC[C@@H](C(=O)N[C@H](CO)[C@@H](C)O)NC1=O [^111In-pentetreotide, ^111In-DTPA-D-Phe^1-octreotide]
Treatment-related toxicity: Grade I Hb (NCI scale), number of cases [1]: 2
Treatment-related toxicity: Grade I WBC (NCI scale), number of cases [1]: 1
Treatment-related toxicity: Grade II WBC (NCI scale), number of cases [1]: 1
Treatment-related toxicity: Grade III platelet (NCI scale), number of cases [1]: 2
persistence of tumor foci on gamma camera scintigraphy [2]: still identifiable by gamma scintigraphy thirteen days after completion of the last infusion dose

Compound: ^125I-somatostatin: radiolabeled native somatostatin, very short-lived peptide (AGCKNFFWKTFTSC; ends and bridges not checked; also: 125I label, site not given here; UniProt P61278 103-116, looked up)
cellular distribution of radioactivity (membrane vs nuclear fractions) ([3]; 1 hr incubation): both membrane binding and small amounts of nuclear binding
cellular distribution of radioactivity (membrane vs nuclear fractions) ([3]; 4 hr incubation): plasma membrane binding appeared to have peaked and the nuclear fraction was dissipating
cellular distribution of radioactivity (membrane vs nuclear fractions) ([3]; 24 hr incubation): essentially no plasma membrane or nuclear binding was seen

Compound: ^125I-17-β-estradiol
Specific Binding ([4]; MCF-7, 1 Hr): 1605 CPM
Specific Binding ([4]; MCF-7, 4 Hr): 2253 CPM
Specific Binding ([4]; MCF-7, 24 Hr): 4109 CPM
Specific Binding ([4]; MCF-7, 48 Hr): 731 CPM
Specific Binding ([5]; 1 Hr): 401 CPM
Specific Binding ([5]; 4 Hr): 506 CPM
Specific Binding ([5]; 24 Hr): 532 CPM
Specific Binding ([5]; 48 Hr): 455 CPM
Specific Binding ([6]; ZR-75-1, 1 Hr): 4102 CPM
Specific Binding ([6]; ZR-75-1, 4 Hr): 4865 CPM
Specific Binding ([6]; ZR-75-1, 24 Hr): 3370 CPM
Specific Binding ([6]; ZR-75-1, 48 Hr): 3057 CPM

Compound: CC(C)[C@@H]1NC(=O)[C@H](CCCCN)NC(=O)[C@@H](Cc2c[nH]c3ccccc23)NC(=O)[C@H](Cc2ccc(O)cc2)NC(=O)[C@@H](NC(=O)[C@H](N)Cc2ccc3ccccc3c2)CSSC[C@@H](C(=O)N[C@H](C(N)=O)[C@@H](C)O)NC1=O [lanreotide]
biologic half-life [7]: 60-90 min

Compound: D-Lys-D-Tyr-D-Lys-D-Tyr-D-Lys-C[Cys-Phe-D-Trp-Lys-Thr-Cys]-Thr-NH2 [^125I-JIC-2D]
binding and internalization [8]: the vast majority of the radioligand was internalized into the cell

Compound: ^111In-Cl
growth rate (mm/day) of angiogenic vascular tissue ([9]; 14-day incubation, FIG. 20): substantially below that of the control
% initiation of angiogenic growth ([9]; 14 days, FIG. 18): substantially less than the control plate
vessel area (mm^2) of sprouting tissue ([9]; 14 days, FIG. 19): substantially less
